Experimental data from US20130085105A1, “Transdermal Administration Of Peptides” (The Provost, Fellows and Scholars of the College of Holy …, priority 2010, published 2013).
Values joined by “and” are separate entries in the source; they are usually repeats but may differ in a detail not shown here. Identical values can stand only once. Like-named read-outs stand apart in the source and are kept apart here.

Columns and labels:
[1] = In vitro transdermal permeation, diffusion cell, hairless mouse skin; type: in vitro ADME, hairless mice
From the text: The abdominal skin from male hairless mice (mice of the HRS strain carrying a mutant Hr gene (hr/hr)) aged 6-8 weeks was cleaned of any subcutaneous fat with blood vessels while maintaining the integrity of the viable epidermis and SC. The excised skin was used immediately after preparation and was not stored prior to use.
(§1) A custom made finite dosing diffusion cell (AGB Scientific, Dublin, Ireland, FIG. 1) based upon and modified from the Keshary-Chien type diffusion cell was used for in vitro permeation studies.
(§2) Three to five diffusion cells were used in each permeation experiment and monitoring was performed over a 48 hour period. The cells were linked in series to a thermostatically controlled circulation bath set at 35° C. to mimic human skin surface temperature. Each cell was placed on a stir-plate set at a defined stirring rate of 1,000 rpm. The surface area for permeation provided by each cell was 3.14 cm^2.
(§3) Data collected from each permeation study included:
(§4) 1) the average maximum flux obtained in 48 hours (Jmax),
(§5) 2) the total absorption characterized as the total weight of peptide delivered transdermally into the receiver compartment over a 48 hour period,
(§6) 3) the lag time to detectable flux which was equivalent to the latest sampling time at which no peptide was detectable by HPLC analysis of the receiver solution, and
(§7) 4) an equivalent 48-hour steady state flux was determined by obtaining the slope of the best-fit line for a plot of cumulative flux per unit area versus time (described by McDaid, D. M. et al., Int. J. Pharm., 133:71-83, 1996).
(§8) Fresh hairless mouse skin samples or fresh or freshly thawed pig skin samples were mounted onto the diffusion cell with the SC topmost and in contact with the donor system. A rubber or plastic ring was placed on top of the skin sample to secure it in position. The combination of the diffusion cell top, the skin and the rubber ring was securely fastened together by means of a threaded cap. A recorded volume of receiver solution was added to the receiver compartment and maintained at 35° C. The receiver solution was 60/40 (v/v) PBS/propylene glycol (pH 7.1). The propylene glycol fraction was used to increase the solubility of the somatostatin-fatty acid salts. Previous work reported by Morgan et al. (J. Pharm. Sci., 87:1213-1218, 1998) has shown that a 50/50 water/propylene glycol receptor solution had no detrimental effect on the barrier integrity of both hairless mouse and porcine skin.
The receiver solution was allowed to equilibrate at 35° C. for 30 minutes. […] A narrow-bore hypodermic needle was used to withdraw 1 ml samples from the receiver compartment via the sampling port; at each sampling time, an equal volume of drug-free receiver solution was immediately added back to the receiver compartment. Samples were analyzed by HPLC.
HPLC determination of peptide content in the receiver solution along with the known surface area of skin used (3.14 cm^2) allowed for calculation of transdermal flux (in units of μg/cm^2/hr) for each time point. Panels 1 and 2 of FIG. 2 show flux […] profiles for the myristate, octanoate, decanoate, linoleate, nonanote, acetate and laurate […]
Once lead candidate somatostatin-fatty acid salts had been selected on the basis of in vitro permeation in a DMSO solution, the effect of different solvents and penetration enhancers on permeation was assessed. The concentration of the donor solution corresponded to 5 mg/ml free base peptide for all experiments and all donor solutions were equilibrated at 37° C. for one hour prior to use. These experiments were carried out using hairless mouse skin and pigskin barriers.

[2] = In vitro transdermal permeation, diffusion cell, pig epidermis; type: in vitro ADME, domestic pigs; conditions: pig epidermis; donor 55% EtOH 40% Water 5% Cineole, 5 mg/ml free base peptide
Experimental: The viable epidermal layer was removed from the flanks of freshly sacrificed four month-old female domestic pigs. The flank area of each animal was carefully shaved and the upper 200 μm of skin (Meyer, W., et al., Curr. Prob. Dermatol., 7: 39-52, 1978; de Jalón, et al., J. Control. Rel., 75:191-197, 2001) was harvested using an electric dermatome (Robbins Instruments, Chatham, N.J., U.S.A.). Pigskin epidermal specimens were frozen at −18° C. between layers of PBS-soaked tissue paper enclosed in aluminum foil for up to two weeks prior to use in in vitro permeation studies.
as §1, §2, §3, §4, §5, §6, §7, §8
The receiver solution was allowed to equilibrate at 35° C. for 30 minutes. The experiment was initiated by the application of 1 ml of donor solution containing approximately 5 mg free base peptide in DMSO to the skin surface followed by sealing of the donor compartment with Parafilm®. A narrow-bore hypodermic needle was used to withdraw 1 ml samples from the receiver compartment via the sampling port; at each sampling time, an equal volume of drug-free receiver solution was immediately added back to the receiver compartment. Samples were analyzed by HPLC.
HPLC determination of peptide content in the receiver solution along with the known surface area of skin used (3.14 cm^2) allowed for calculation of transdermal flux (in units of μg/cm^2/hr) for each time point. Panels 1 and 2 of FIG. 2 show flux profiles obtained for the oleate salts of Compound A and Compound B in DMSO which far exceeded the flux profiles for the myristate, octanoate, decanoate, linoleate, nonanote, acetate and laurate salts of Compound A as well as the acetate salt of Compound B in DMSO. […]

[3] = Peptide content in upper and lower skin layers after permeation (tape stripping); type: in vitro ADME, hairless mice; conditions: percentage of total applied dose, hairless mouse skin
Experimental: The quantity of peptide present in the upper SC and lower dermis layers of the hairless mouse skin samples were determined for each concentration of analog tested. To determine analog concentrations in the SC, the skin samples were wiped clean of donor solution, patted dry and stripped twenty times with Sellotape®, using a fresh piece for each stripping. The twenty pieces of Sellotape® were pooled in a 50 ml centrifuge tube and 10 ml of 50/50 (v/v) acetonitrile/0.1M TFA was added. The sample was homogenized at 20,000 rpm for 5 minutes and then filtered. The peptide content was determined using HPLC. To determine peptide content in the dermal layer, the remaining skin sample was cut into fine pieces, homogenized and analyzed as described.

[4] = Solubility of somatostatin fatty-acid salts; type: physicochemical; conditions: 24 hours
Experimental: The solubilities of Compound A and Compound B oleate were determined in deionized water, phosphate-buffered saline (PBS; pH 7.4) and n-octanol. Analysis was carried out by placing an excess of each salt with 1 ml of the selected solvent into four 4 ml sealed HPLC vials. The samples were allowed to equilibrate at 37° C. for 24 hours with shaking. Each of the four dispersions was then filtered through a 0.2 μm nylon membrane (Pall Gelman, Ann Arbor, Mich., U.S.A.). Prior to HPLC analysis, the n-octanol samples were diluted 1:100 with methanol and the PBS and deionized water samples were diluted 1:10 in de-ionized water. Table 7 lists the solubilities of Compound A and Compound B oleate salts in deionized water, PBS and n-octanol.

[5] = Partition coefficients n-octanol/deionized water and n-octanol/PBS; type: physicochemical; conditions: 24 hours; for Log KOPBS / O/PBS Coefficient (KOPBS): n-octanol/PBS pH 7.4, 37° C.; for Log KOW / O/W Coefficient (KOW): n-octanol/deionized water, 37° C.
Experimental: The partition coefficients for all somatostatin-fatty acid salts in either n-octanol/deionized water or n-octanol/PBS (pH 7.4) were determined. The partition coefficient is the concentration of Compound A or Compound B in the n-octanol phase divided by the concentration in the aqueous or PBS phase.
An accurately weighed sample of each salt was placed into 4 ml HPLC vials sealed with caps containing pierceable silicone septa and dissolved in 2 ml n-octanol. Two ml of either deionized water or PBS were added to each sample; the vials were vortexed vigorously and incubated at 37° C. with agitation for 24 hours in a shaker-incubator at 400 rpm.
Following incubation, two samples were withdrawn from each vial. Once the layers had fully partitioned, a syringe was used to draw a sample of the aqueous phase or the n-octanol phase. Samples from each phase were diluted appropriately with deionized or methanol prior to HPLC analysis.

[6] = 4.3 mg/ml in DMSO +1% (v/v) oleic acid
[7] = donor DMSO, approx. 5 mg/ml free base peptide (4.9 mg/ml Compound A oleate, 5.2 mg/ml Compound A acetate)
[8] = donor DMSO, approx. 5 mg/ml free base peptide (4.9 mg/ml Compound A oleate, 5.2 mg/ml Compound A acetate), 48 hr
[9] = donor 55% EtOH 40% Water 5% Cineole, 5 mg/ml free base peptide
[10] = donor 55/45 (v/v) EtOH/H2O, approx. 5 mg/ml free base peptide
[11] = donor propylene glycol, approx. 5 mg/ml free base peptide

CC(C)[C@@H]1NC(=O)[C@H](CCCCN)NC(=O)[C@@H](Cc2c[nH]c3ccccc23)NC(=O)[C@H](Cc2ccc(O)cc2)NC(=O)[C@@H](NC(=O)[C@H](N)Cc2ccc3ccccc3c2)CSSC[C@@H](C(=O)N[C@H](C(N)=O)[C@@H](C)O)NC1=O [Compound A di-acetate, D-2-Nal-c(Cys-Tyr-D-Trp-Lys-Val-Cys)-Thr-NH2, reference compound]
Jmax [1, 6]: 53.576 μg/cm^2/hr | Jss [1, 6]: 1.873 μg/cm^2/hr | Lag Time [1, 6]: 0.0 h | Total Absorption [1, 6]: 387.78 μg/48 hr | effect of 1% (v/v) free oleic acid on flux ([1]; donor DMSO): increase of flux | Lag Time [1, 7]: 29.5 h | Total Absorption [1, 7]: 48.08 μg/48 hr | Jmax [1, 8]: 0.320 μg/cm^2/hr | Jss [1, 8]: 0.240 μg/cm^2/hr

CC(C)[C@@H]1NC(=O)[C@H](CCCCN)NC(=O)[C@@H](Cc2c[nH]c3ccccc23)NC(=O)[C@H](Cc2ccc(O)cc2)NC(=O)[C@@H](NC(=O)[C@H](N)Cc2ccc3ccccc3c2)CSSC[C@@H](C(=O)N[C@H](C(N)=O)[C@@H](C)O)NC1=O [Compound A di-oleate, D-2-Nal-c(Cys-Tyr-D-Trp-Lys-Val-Cys)-Thr-NH2]
Jmax [2]: 9.019 μg/cm^2/hr | Jss [2]: 1.407 μg/cm^2/hr | Lag Time [2]: 1 h | Total Absorption [2]: 231.09 μg/48 hr | Wt. % delivered ([3]; 4.9 mg free base in DMSO): 9.23% | Wt. % in lower skin layers ([3]; 4.9 mg free base in DMSO): 7.63% | Wt. % in upper skin layers ([3]; 4.9 mg free base in DMSO): 20.22% | Wt. % delivered ([3]; 8.9 mg free base in DMSO): 5.84% | Wt. % in lower skin layers ([3]; 8.9 mg free base in DMSO): 1.09% | Wt. % in upper skin layers ([3]; 8.9 mg free base in DMSO): 49.93% | solubility ([4]; deionized water, 37° C., read-out: Solubility DI H2O): 35 µg/mL | solubility ([4]; n-octanol, 37° C., read-out: Solubility n-Octanol): 123000 µg/mL | solubility ([4]; pH 7.4, PBS pH 7.4, 37° C., read-out: Solubility PBS): 40 µg/mL | Jmax ([1]; 8.9 mg/ml free base in DMSO): 24.942 μg/cm^2/hr | Jss ([1]; 8.9 mg/ml free base in DMSO): 3.342 μg/cm^2/hr | Lag Time ([1]; 8.9 mg/ml free base in DMSO): 0.5 h | Total Absorption ([1]; 8.9 mg/ml free base in DMSO): 522.82 μg/48 hr | increase in total peptide flux over 48 hours due to cineole ([1]; 55/40/5 ethanol/water/cineole vs 55/45 ethanol/water): 7.19% | Jmax [1, 9]: 14.100 μg/cm^2/hr | Jss [1, 9]: 6.359 μg/cm^2/hr | Lag Time [1, 9]: 2 h | Total Absorption [1, 9]: 825.35 μg/48 hr | Jmax [1, 10]: 11.343 μg/cm^2/hr | Jss [1, 10]: 5.871 μg/cm^2/hr | Lag Time [1, 10]: 2 h | Total Absorption [1, 10]: 770.02 μg/48 hr | Lag Time [1, 7]: 1.0 h and 1 h | Total Absorption [1, 7]: 448.52 μg/48 hr | Jmax [1, 8]: 19.887 μg/cm^2/hr | Jss [1, 8]: 2.858 μg/cm^2/hr | Jmax [1, 11]: 0.366 μg/cm^2/hr | Jss [1, 11]: 0.318 μg/cm^2/hr | Lag Time [1, 11]: 24 h | Total Absorption [1, 11]: 55.17 μg/48 hr | flux profile in DMSO compared with other salts ([1]; vs myristate, octanoate, decanoate, linoleate, nonanoate, acetate, laurate salts of Compound A and acetate of Compound B): far exceeded

D-2-Nal-c(Cys-Tyr-D-Trp-Lys-Val-Cys)-Thr-NH2 [Compound A di-decanoate]
Log KOPBS [5]: 0.844 | O/PBS Coefficient (KOPBS) [5]: 6.99 | Log KOW [5]: 2.325 | O/W Coefficient (KOW) [5]: 211.53

D-2-Nal-c(Cys-Tyr-D-Trp-Lys-Val-Cys)-Thr-NH2 [Compound A di-laurate]
Log KOPBS [5]: 0.854 | O/PBS Coefficient (KOPBS) [5]: 7.15 | Log KOW [5]: 2.943 | O/W Coefficient (KOW) [5]: 876.40

D-2-Nal-c(Cys-Tyr-D-Trp-Lys-Val-Cys)-Thr-NH2 [Compound A di-linoleate]
Log KOPBS [5]: 0.866 | O/PBS Coefficient (KOPBS) [5]: 7.35 | Log KOW [5]: 1.917 | O/W Coefficient (KOW) [5]: 82.52

D-2-Nal-c(Cys-Tyr-D-Trp-Lys-Val-Cys)-Thr-NH2 [Compound A di-myristate]
Log KOPBS [5]: 0.806 | O/PBS Coefficient (KOPBS) [5]: 6.40 | Log KOW [5]: 2.610 | O/W Coefficient (KOW) [5]: 407.50

D-2-Nal-c(Cys-Tyr-D-Trp-Lys-Val-Cys)-Thr-NH2 [Compound A di-nonanoate]
Log KOPBS [5]: 0.811 | O/PBS Coefficient (KOPBS) [5]: 6.47 | Log KOW [5]: 2.723 | O/W Coefficient (KOW) [5]: 528.50

D-2-Nal-c(Cys-Tyr-D-Trp-Lys-Val-Cys)-Thr-NH2 [Compound A di-octanoate]
Log KOPBS [5]: 0.827 | O/PBS Coefficient (KOPBS) [5]: 6.71 | Log KOW [5]: 2.794 | O/W Coefficient (KOW) [5]: 622.86

[4-(2-hydroxyethyl)]-1-piperazinylacetyl-D-Phe-c(Cys-Tyr-D-Trp-Lys-Abu-Cys)-Thr-NH2 [Compound B di-acetate]
Log KOPBS [5]: −2.000 | O/PBS Coefficient (KOPBS) [5]: 0.01 | Log KOW [5]: −2.000 | O/W Coefficient (KOW) [5]: 0.01
